Laboratory results taken from patent publication US9855320B2, “Angiogenin for treatment of glaucoma” (CHUNG-ANG UNIVERSITY INDUSTRY-ACADEMIC COOPERATION …, priority 2011, dated 2018).

Legend:
[1] = test system: caspase-3; test: Reverse transcription polymerase chain reaction on injured tissue of corneal chemical burn model, caspase-3; format: in vivo, rat; conditions: third day and seventh day after keratoconjunctival chemical injury
Description: Three days, and 1, 2, 4, and 8 weeks after injuring, corneal opacity and neoangiogenesis level were assessed in consideration of images of anterior ocular segment, and on the third day and the seventh day, the respective conjunctiva damaged parts were collected and then subjected to a reverse transcription polymerase chain reaction to assay expression of IL-1a, TGF-β, SDF-1, and caspase-3.
Tissues obtained from chronic intraocular pressure increase model and corneal chemical burn model were frozen, and then cut into small parts by using a fine knife. The tissue parts were treated with 1 ml of TRI reagent (Molecular Research Center, Inc.) and then, tissue and cell were lysed by homogenizer. The respective implication cDNA […] 0.2 mM dNTP, 10×buffer, 10 pmols primer, and 0.2 U Taq polymerase were mixed to obtain a volume of 20 μl, and then, PCR thermal cycler (a machine for PCR) was used for reaction for 5 minutes at 95° C., 40 second at 94° C., 40 seconds at 48 to 64° C., 40 seconds (35 cycles) at 72° C., and 10 minutes at 72° C. The amplified polymerase chain reaction product was identified by 1% agarose gel electrophoresis. β actin was used as a positive control for the polymerase chain reaction, and relative expression morphs of a target gene with respect to β actin expression were compared. […]

[2] = test system: normal white rat; test: Intraocular pressure change due to instillation in normal white rats (day-time and night-time); format: in vivo
Description: White rats were grouped as a physiological saline solution instillation group, an angiogenin (recombinant human angiogenin, R&D systems, USA) 50 μg/ml instillation group, an angiogenin fragment (angiogenin 108-122, SEQ ID NO: 1, BACHEM, USA) instillation group, and a latanoprost 50 μg/ml instillation group, and each group consisted of 6 rats, that is, 12 eyes. Instillation test was repeatedly performed on normal rats and glaucoma model rats. Ophthalmic agent was administered at 8 AM and 8 PM in an amount of 4 μl to compare day-time effects and night-time effects, and 1, 3, 6, 9, 12, and 24 hours after the instillation, intraocular pressure was measured.

[3] = test system: angiogenin; test: Angiogenin immunohistochemical staining of glaucoma rat model anterior chamber angle after instillation; format: in vivo; conditions: episcleral venous ablation glaucoma model, 1 hour after instillation, compared to before angiogenin instillation
Description: Eyeballs donated for research purposes were pre-fixed in a 4% paraformaldehyde solution for 6 hours, and then, a tissue thereof was cut to be perpendicular to cornea, including cornea, limbus, and conjunctival, and the obtained tissue was fixed at room temperature for 6 hours. The fixed tissue was rapidly frozen and then a frozen tissue section was prepared and attached to slide glass. Thereafter, for immunohistochemical staining, the tissue section was washed with distilled water for 10 minutes and then, treated with 1% hydrogen peroxide solution for 20 minutes and then, washed three times with 0.02M phosphate buffer solution and treated with normal horse serum for 30 minutes. Then, primary antibody of angiogenin and Indoleamine 2,3-dioxygenase (IDO) were applied thereto for 48 hours, and then the result tissue were washed with PBS, and then, secondary antibody was applied thereto at room temperature for 1 hour. When immunohistochemical staining was completed, the tissue was sealed by poly-mount and identified by optical microscopy. […]

## angiogenin: recombinant human angiogenin (R&D systems); 14.4 kDa single chain protein of 123 amino acids, a ribonuclease inducing angiogenesis
[1]
  caspase-3 expression compared to the control: less expressed
[2]; day-time instillation
  time after instillation up to which significant intraocular pressure reduction was maintained: up to 9 hours
[2]; day-time instillation, 50 μg/ml
  time after instillation at which average intraocular pressure began to significantly decrease: 1 h
[2]; day-time instillation, 50 μg/ml 4 μl, maintained up to 9 hours after the instillation
  intraocular pressure reduction compared to the pre-instillation intraocular pressure: −1.8±0.4 mmHg
[2]; night-time instillation
  time after instillation up to which significant intraocular pressure reduction was maintained: up to 24 hours
[2]; night-time instillation, 50 μg/ml, maintained up to 24 hours after the instillation
  intraocular pressure reduction compared to that before instillation: −1.5±0.4 mmHg
[2]; night-time instillation, 1 hour after the instillation
  intraocular pressure reduction (in words): significant intraocular pressure reduction
[3]
  angiogenin stain in anterior chamber angle / at trabecular meshwork: intensified
